The values that follow come from ChEMBL document CHEMBL6087416, “Discovery of novel fused-heterocycle-bearing diarypyrimidine derivatives as HIV-1 potent NNRTIs targeting tolerant region I for enhanced antiviral activity and resistance profile” (Eur J Med Chem, 2025).

Data set [1] relates to Human immunodeficiency virus 1. Type of data set: functional, organism-based. The settings on record: Human immunodeficiency virus 1, MT4, 120 h.
The test system of data set [2] is Human immunodeficiency virus 1. The data set can be described thus: Antiviral activity against NNRTI-resistant HIV-1 harboring RT K103N mutant infected in human MT4 cells assessed as protection against virus-induced cytopathic effect incubated for 5 days by MTT assay. Type of data set: functional, organism-based. The settings on record: Human immunodeficiency virus 1, MT4, 120 h.

For data set [3], the system named is Human immunodeficiency virus 1. The data set can be described thus: Antiviral activity against NNRTI-resistant HIV-1 harboring RT L100I mutant infected in human MT4 cells assessed as protection against virus-induced cytopathic effect incubated for 5 days by MTT assay. Type of data set: functional, organism-based. The settings on record: Human immunodeficiency virus 1, MT4, 120 h.

The test system of data set [4] is Human immunodeficiency virus 2. The data set is described as follows: Antiviral activity against HIV-2 ROD infected in human MT4 cells assessed as protection against virus-induced cytopathic effect incubated for 5 days by MTT assay. The data set is classed as functional, organism-based. The settings on record: Human immunodeficiency virus 2, ROD, MT4, 120 h.
Data set [5] in a line: in vitro. The settings on record: human, MT4 cells.
Description: Selectivity index, ratio of CC50 for human MT4 cells to EC50 for wild type HIV-1 IIIB infected in human MT4 cells
Data set [6] concerns Human immunodeficiency virus 1. The data set is classed as functional, organism-based. The conditions noted are these: Human immunodeficiency virus 1, MT4, 120 h. The source holds these as a separate data set.
Data set [7] relates to Human immunodeficiency virus 1. The data set can be described thus: Antiviral activity against NNRTI-resistant HIV-1 harboring RT E138K mutant infected in human MT4 cells assessed as protection against virus-induced cytopathic effect incubated for 5 days by MTT assay. The settings on record: Human immunodeficiency virus 1, MT4, 120 h. Type of data set: functional, organism-based.

Data set [8] addresses Human immunodeficiency virus type 1 reverse transcriptase (Human immunodeficiency virus 1, UniProt Q72547). The data set can be described thus: Inhibition of wild type HIV-1 Reverse transcriptase incubated for 1 hrs by ELISA analysis.
Data set [9] has as its system Human immunodeficiency virus 1. Type of data set: functional, organism-based. The conditions noted are these: Human immunodeficiency virus 1, RES056, MT4, 120 h.
A short description of data set [10]: Cytotoxicity against human MT4 cells assessed as reduction in cell viability measured after 5 days by MTT assay. Type of data set: toxicity, cell-based. The settings on record: time 5 day.
Data set [11] has as its system Human immunodeficiency virus 1. The data set is described as follows: microbe, parasite or virus in culture. The settings on record: Human immunodeficiency virus 1, IIIB, MT4, 120 h.
Description: Antiviral activity against wild type HIV-1 IIIB infected in human MT4 cells assessed as protection against virus-induced cytopathic effect incubated for 5 days by MTT assay
Data set [12] can be described thus: in vitro. The settings on record: human, MT4 cells. This is another data set of the same source.
Description: Selectivity index, ratio of CC50 for human MT4 cells to EC50 for HIV-1 RES056 harboring RT K103N/Y181C mutant infected in human MT4 cells
Data set [13] relates to Human immunodeficiency virus 1. The data set is classed as functional, organism-based. The settings on record: Human immunodeficiency virus 1, MT4, 120 h. The source holds these as a separate data set.
The nature of data set [14]: in vitro. The conditions noted are these: human, MT4 cells. The source holds these as a separate data set.
Description: Selectivity index, ratio of CC50 for human MT4 cells to EC50 for HIV-2 ROD infected in human MT4 cells

Consider `Cc1cc(/C=C/C#N)cc(C)c1Oc1ccnc(Nc2ccc3c(c2)COC3)n1`, for which the EC50 in [1] was 700 nM; in [2], 6 nM; in data set [3] it was 47 nM; in data set [4] it was greater than 14000 nM; in data set [6], 99 nM; in data set [7], 39 nM. The EC50 was determined as 1080 nM in data set [9], 2 nM in data set [11] and 4900 nM in [13]. Also, the results for the selectivity ratio in the data set “in vitro [5]” and in the data set “in vitro [12]” were 7440 and 573, respectively. The same molecule returned a half-inhibitory concentration (IC50) in data set [8] of 29 nM. In data set [10], the CC50 at 120 h came out at 14000 nM.

For `Cc1cc(/C=C/C#N)cc(C)c1Oc1ccnc(Nc2ccc3scnc3c2)n1`, the EC50 in data set [1] is 1230 nM; in data set [2], 6 nM; in data set [3], 29 nM; in data set [4] it was 7040 nM; in data set [6], 68 nM; in [7] it was 17 nM. Besides, the EC50 is 950 nM in [9], 2 nM in data set [11] and 1370 nM in [13]. In addition, the selectivity ratio is 26700 in the data set “in vitro [5]”, 7.13 in the data set “in vitro [14]” and 506 in the data set “in vitro [12]”. Besides, the IC50 in [8] is 43 nM. Besides, in data set [10], the CC50 at 120 h came out at 50200 nM.

Turning to `Cc1cc(/C=C/C#N)cc(C)c1Oc1ccnc(Nc2ccc3nsnc3c2)n1`, the EC50 in data set [4] worked out at 1260 nM; in data set [9], 560 nM; in data set [11], 7 nM. In addition, the selectivity ratio is 2850 in the data set “in vitro [5]”, 16.4 in the data set “in vitro [14]” and 37 in the data set “in vitro [12]”. The IC50 in [8] was 37 nM. Further, in [10], the cytotoxic concentration (CC50) at 120 h stood at 20600 nM.

Consider `Cc1cc(/C=C/C#N)cc(C)c1Oc1ccnc(Nc2ccc3nccn3c2)n1`, for which the EC50 was 960 nM in data set [1]; 8 nM in data set [2]; 64 nM in data set [3]; greater than 28700 nM in [4]; 210 nM in data set [6]; 58 nM in data set [7]. Also, the EC50 in [9] was determined as 1450 nM; in [11], 2 nM; in data set [13] it was 3910 nM. The selectivity ratio in the data set “in vitro [5]” worked out at 14600; in the data set “in vitro [12]”, 20. Moreover, in data set [8], the IC50 is 29 nM. Further, the CC50 at 120 h in data set [10] is 28700 nM.

In the case of `Cc1cc(/C=C/C#N)cc(C)c1Oc1ccnc(Nc2ccc3c(c2)OCO3)n1`, the values for the EC50 in [4], in [9] and in [11] were 8200 nM, 2220 nM and 8 nM, respectively. Also, the figures for the selectivity ratio in “in vitro [5]”, in the data set “in vitro [14]” and in the data set “in vitro [12]” were 5260, 4.98 and 18, respectively. Further, in [8], the IC50 came out at 26 nM. For the same molecule, in data set [10], the CC50 at 120 h worked out at 40800 nM.

As to `Cc1cc(/C=C/C#N)cc(C)c1Oc1ccnc(Nc2ccc3c(c2)NC(=O)C3)n1`, the EC50 in data set [1] was 14400 nM; in data set [2], 4 nM; in data set [3], 54 nM; in data set [4] it was greater than 50300 nM; in data set [6], 72 nM; in data set [7] it was 46 nM. Besides, the EC50 in [9] was 33700 nM; in [11], 2 nM; in data set [13] it was greater than 50300 nM. Moreover, the values for the selectivity ratio in the data set “in vitro [5]” and in “in vitro [12]” were greater than 27600 and greater than 1, respectively. Besides, it took 53 nM to reach half-maximal inhibition in data set [8] (IC50). The CC50 at 120 h in [10] was greater than 50300 nM.

`Cc1cc(/C=C/C#N)cc(C)c1Oc1ccnc(Nc2ccc3c(c2)C(=O)N(C)C3=O)n1`: the EC50 in data set [4] amounted to 165000 nM; in [9] it was 4670 nM; in data set [11] it was 6 nM. Also, the selectivity ratio was greater than 52500 in “in vitro [5]”, greater than 1.78 in the data set “in vitro [14]” and greater than 63 in the data set “in vitro [12]”. In data set [8], this molecule had an IC50 of 54 nM. In addition, the CC50 at 120 h in data set [10] was greater than 294000 nM.

Consider `Cc1cc(/C=C/C#N)cc(C)c1Oc1ccnc(Nc2ccc(N3CCN(S(C)(=O)=O)CC3)c(C#N)c2)n1`, for which the EC50 in data set [1] was 10 nM; in [2] it was 2 nM; in data set [3], 4 nM; in data set [4], greater than 10200 nM; in [6] it was 6 nM; in data set [7], 6 nM. The EC50 in [9] turned out to be 93 nM; in [11], 1 nM; in data set [13] it was 740 nM. Further, the selectivity ratio was found to be 7170 in “in vitro [5]” and 110 in the data set “in vitro [12]”. The CC50 at 120 h in data set [10] amounted to 10200 nM.

In the case of `Cc1cc(/C=C/C#N)cc(C)c1Oc1ccnc(Nc2ccc3c(c2)C(=O)NCC3)n1`, the EC50 in data set [1] is greater than 3190 nM; in data set [2], 11 nM; in [3], 14 nM; in data set [4], greater than 3190 nM; in data set [6] it was 44 nM; in data set [7], 21 nM. Further, the EC50 in [9] was 1340 nM; in data set [11] it was 3 nM; in data set [13] it was greater than 3190 nM. Further, the selectivity ratio in “in vitro [5]” worked out at 1220; in “in vitro [12]”, 2. It took 46 nM to reach half-maximal inhibition in data set [8] (IC50). In addition, the CC50 at 120 h in data set [10] worked out at 3190 nM.

On to `Cc1cc(/C=C/C#N)cc(C)c1Oc1ccnc(Nc2ccc3c(cnn3C)c2)n1`, for which the EC50 in data set [1] is greater than 50400 nM; in data set [2], 18 nM; in data set [3] it was 92 nM; in data set [4] it was greater than 50400 nM; in data set [6], 180 nM; in data set [7] it was 54 nM. In addition, the figures for the EC50 in [9], in data set [11] and in data set [13] were greater than 50400 nM, 3 nM and greater than 50400 nM, respectively. Also, the selectivity ratio in “in vitro [5]” was greater than 18200. For the same molecule, the IC50 in data set [8] is 45 nM. The CC50 at 120 h in data set [10] was greater than 50400 nM.

With `Cc1cc(/C=C/C#N)cc(C)c1Oc1ccnc(Nc2ccc3cnsc3c2)n1`, the EC50 in data set [1] was 500 nM; in data set [2], 4 nM; in [3], 14 nM; in [4], greater than 10100 nM; in data set [6], 48 nM; in data set [7] it was 14 nM. The EC50 in [9] stood at 450 nM; in data set [11] it was 2 nM; in data set [13], 990 nM. The selectivity ratio in “in vitro [5]” was found to be 4140; in “in vitro [12]” it was 22. Besides, in [8], 19 nM corresponded to half-maximal inhibition (IC50). Also, the CC50 at 120 h in [10] was found to be 10100 nM.

For the molecule `Cc1cc(/C=C/C#N)cc(C)c1Oc1ccnc(Nc2ccc3occc3c2)n1`, the EC50 was 45500 nM in [4], 8590 nM in [9] and 7 nM in data set [11]. The selectivity ratio amounted to 31100 in “in vitro [5]”, 4.74 in the data set “in vitro [14]” and 25 in “in vitro [12]”. In addition, half-maximal inhibition in data set [8] (IC50) required 55 nM. In addition, the CC50 at 120 h in [10] was 216000 nM.

In the case of `Cn1c(Cn2ccc(C(F)(F)F)c(Oc3cc(Cl)cc(C#N)c3)c2=O)n[nH]c1=O` [DORAVIRINE], the EC50 was 22100 nM in data set [1]; 10 nM in data set [2]; 8 nM in [3]; greater than 47000 nM in [4]; 17 nM in data set [6]; 19 nM in data set [7]. Further, the figures for the EC50 in [9], in [11] and in data set [13] were 50 nM, 7 nM and 1710 nM, respectively. In addition, the selectivity ratio in “in vitro [5]” was greater than 6760; in “in vitro [12]”, greater than 931. The IC50 in data set [8] turned out to be 30 nM. Moreover, the CC50 at 120 h in [10] is greater than 47000 nM.

As to `O=C1Nc2ccc(Cl)cc2[C@@](C#CC2CC2)(C(F)(F)F)O1` [EFAVIRENZ], the EC50 in data set [4] was greater than 6340 nM; in [6] it was 9 nM; in data set [7], 9 nM. In addition, in [10], the CC50 at 120 h was greater than 6340 nM.

Turning to `Cc1cc(C#N)cc(C)c1Oc1nc(Nc2ccc(C#N)cc2)nc(N)c1Br` [ETRAVIRINE], the EC50 in data set [1] is 17 nM; in [4], greater than 4590 nM; in [9] it was 32 nM; in [13], 31 nM. Moreover, the CC50 at 120 h in data set [10] was greater than 4590 nM.

Turning to `Cc1ccnc2c1NC(=O)c1cccnc1N2C1CC1` [NEVIRAPINE], the EC50 in [1] was greater than 9510 nM; in [2], 5220 nM; in data set [4] it was greater than 9510 nM; in [6] it was 5830 nM; in [9] it was greater than 9510 nM; in data set [11], 130 nM. Besides, the EC50 in data set [13] was greater than 9510 nM. Further, the CC50 at 120 h in [10] is greater than 9510 nM.

Consider `Cc1cn([C@H]2C[C@H](N=[N+]=[N-])[C@@H](CO)O2)c(=O)[nH]c1=O` [ZIDOVUDINE], for which the EC50 in data set [2] was 36 nM; in data set [3] it was 14 nM; in [4], 39 nM; in data set [6] it was 41 nM; in data set [7] it was 47 nM; in data set [9], 35 nM. For the same molecule, the EC50 in [11] and in [13] was 40 nM each time. For the same molecule, the figures for the selectivity ratio in the data set “in vitro [5]”, in “in vitro [14]” and in “in vitro [12]” were greater than 186, greater than 192 and greater than 215, respectively. Also, the CC50 at 120 h in [10] is greater than 7480 nM.
